# Measured values: patent publication US12569532B2, “Brain function regulating agent, and food or beverage product containing same” (NITTA GELATIN INC., priority 2019, dated 2026)
# Where two headings read alike, the source gives them in different places. Where a SMILES comes first, the peptide text is derived from it. [ ]: non-standard residue; d: D form. Hyp = O=C(O)[C@@H]1C[C@@H](O)CN1
# What was measured:
# [1] = system: cerebellar granule cells (CGC); details: Wistar, rat, 6 days
# Method: (§1) 15 to 25-week-old male and female Wistar rats were provided by purchase from CREA Japan, Inc. Thereafter, the rats were reared under the following conditions: the temperature was 23±2° C., the relative humidity was 55±10%, the lighting cycle was 12 hours, the light period started at 7:00 and ended at 19:00, and the rats were fed with a solid feed (“CE-2” (trade name) manufactured by CREA Japan, Inc) and allowed to freely access drinking water. Under the same conditions as described above, the rats were mated to obtain 7-day-old rats. Further, 3 to 8-day-old Wistar rats were provided by purchase from CREA Japan, Inc.
# (§2) The Wistar rats were reared to the age of 7 to 9 days under the above-described conditions, and cerebella were then excised from these rats, and dispersed by the below-described method using the dispersion solutions shown in Table 4 (liquids I to V). In this way, dispersions containing granule cells and other cerebral nerve cells (hereinafter, these cells are also referred to collectively as “cerebellar granule cells (CGC)”) from the cerebella. The cerebellar granule cells (CGC) are cerebral nerve cells. Thereafter, the CGC contained in the dispersions was cultured. […] The method for preparing the cerebellar granule cells (CGC) is as follows.
# (§3) First, ten of the 7 to 9-day-old rats were decapitated, and cerebella were excised in the clean bench, and then formed into minced paste with a razor after removal of unnecessary tissues, blood vessels, chorionic membranes and the like. Liquid I was added to the paste to give a suspension, and the suspension was centrifuged at 1,000 rpm for 30 seconds to obtain a first separate liquid containing a supernatant and a cell group. The supernatant was removed from the first separate liquid, liquid II pre-warmed to 37° C. in a thermostatic bath was then added to the remaining cell group little by little, and the mixture was stirred, transferred into a 50 mL medium bottle, and further stirred at 37° C. for 15 minutes to perform tissue digestion with trypsin.
# (§4) Next, liquid IV was added to the medium bottle to deactivate the trypsin, and the mixture was centrifuged at 1,000 rpm for 30 seconds to obtain a second separate liquid containing a supernatant and a cell group. The supernatant was removed from the second separate liquid, and a small amount of liquid III was then added to the remaining cell group with a Pasteur pipette to disperse the cell group. Thereafter, the mixture was left standing for 15 minutes to obtain a third separate liquid containing a supernatant and a cell group, and the supernatant was taken into liquid V. To the cell group remaining in the third separate liquid, a small amount of liquid III was added to redisperse the cell group. Thereafter, the mixture was left standing for 5 to 10 minutes to obtain a fourth separate liquid containing a supernatant and a cell group, and the supernatant was taken into liquid V containing the supernatant of the third separate liquid.
# (§5) Liquid V containing the supernatant of the third separate liquid and the supernatant of the fourth separate liquid was centrifuged at 1,000 rpm for 5 minutes to obtain a fifth separate liquid containing a supernatant and a cell group. The supernatant was removed from the fifth separate liquid, a basal medium (BME: Basal Medium Eagle manufactured by Sigma-Aldrich Co. LLC) was then added to the remaining cell group, and the mixture was stirred to obtain a mixed liquid containing cerebellar granule cells (CGC) and BME. Thereafter, the mixed liquid was stained with a trypan Blue solution with a concentration of 0.4 mass %, and the number of the stained cells and the viability thereof were measured.
# [2] = system: cerebellar granule cells (CGC); details: Wistar, rat, 6 days; remark: listed apart in the source
# Method: Next, K+5 mM serum (+) BME was added to the mixed liquid in such a manner that the cell density of living cells was 1.2×10^5 cells/mL, and the mixture was suspended to obtain a culture sample. The culture sample was seeded at 0.766 mL per well in a 12-well plate pre-coated with poly-L-lysin (PLL) with a concentration of 50 μg/mL, and was cultured in an incubator environment of CO2 with a concentration of 5 vol % at 37° C.
# On day 1 after the start of culture, to each well was added cytosine β-D-arabinofuranoside (AraC) to a final concentration of 10 μM for the purpose of suppressing growth of non-neuronal cells while maintaining only CGC. Further, in the below-described control sample, KCl was added to a final concentration of 25 mM. In other samples (samples containing the peptides or amino acids shown in Tables 5 to 7 below), KCl was added with an adjustment made to a final concentration of 15 mM.
# Specifically, the percent ratio of the number of living cells in each sample to the number of living cells in the control sample having a KCl concentration of 25 mM was determined, and subjected to statistical processing to evaluate significance of the differentiation promoting action on CGC. […]
# [3] = system: cerebellar granule cells (CGC); assay: Evaluation Test 2: viability of primary-cultured CGC by MTT assay (differentiation promoting action); details: for Viability (%): KCl 15 mM, MTT day 7, percent of control sample with KCl 25 mM
# Method: as §1, §2, §3, §4, §5
# rats = details: when transferred into the cerebrospinal fluid, NPL 2; cited from earlier work
# [4] = system: PC12 cells derived from a rat adrenal pheochromocytoma; details: PTL 2; cited from earlier work
molecule,measurement,setting,value
C[C@H](N)C(=O)N1C[C@H](O)C[C@H]1C(=O)O [AO] (H-Ala-[Hyp]-OH; N-terminus and C-terminus assumed),Viability (%),[1]; 0.1 μM,55.1%
same,Viability (%),[1]; 1 μM,57.0%
same,Viability (%),[1]; 10 μM,66.1%
same,Viability (%),[1]; 100 μM,64.7%
same,Viability (%),[1]; 1000 μM,65.9%
O=C(O)CC[C@@H]1NC(=O)[C@@H]2C[C@@H](O)CN2C1=O [C-EO],Viability (%),[1]; 0.1 μM,51.3%
same,Viability (%),[1]; 1 μM,52.0%
same,Viability (%),[1]; 10 μM,64.8%
same,Viability (%),[1]; 100 μM,65.0%
same,Viability (%),[1]; 1000 μM,69.3%
O=C1NCC(=O)N2CCC[C@@H]12 [C-GP],Viability (%),[1]; 10 μM,51.2%
same,Viability (%),[1]; 100 μM,46.4%
same,Viability (%),[1]; 1000 μM,53.3%
O=C1N[C@@H](Cc2cnc[nH]2)C(=O)N2CCC[C@@H]12 [C-HP],Viability (%),[1]; 10 μM,65.1%
same,Viability (%),[1]; 100 μM,63.9%
same,Viability (%),[1]; 1000 μM,69.2%
O=C1NCC(=O)N2C[C@H](O)C[C@@H]12 [C-OG],Viability (%),[1]; 0.1 μM,57.8%
same,Viability (%),[1]; 1 μM,63.2%
same,Viability (%),[1]; 10 μM,54.2%
same,Viability (%),[1]; 100 μM,50.1%
same,Viability (%),[1]; 1000 μM,62.7%
O=C1[C@@H]2C[C@@H](O)CN2C(=O)[C@@H]2CCCN12 [C-PO],Viability (%),[1]; 0.1 μM,55.7%
same,Viability (%),[1]; 1 μM,58.4%
same,Viability (%),[1]; 10 μM,73.2%
same,Viability (%),[1]; 100 μM,70.6%
same,Viability (%),[1]; 1000 μM,68.4%
"N[C@@H](CCC(=O)O)C(=O)N1C[C@H](O)C[C@H]1C(=O)NCC(=O)O [EOG, Glu-Hyp-Gly] (H-Glu-[Hyp]-Gly-OH; N-terminus and C-terminus assumed)",Viability (%),[2]; 3 μM,67.2%
same,Viability (%),[2]; 7 μM,72.7%
same,Viability (%),[1]; 0.1 μM,69.9%
same,Viability (%),[1]; 100 μM,74.4%
same,Viability (%),[1]; 1000 μM,77.7%
N[C@@H](CCC(=O)O)C(=O)N1C[C@H](O)C[C@H]1C(=O)O [EO] (H-Glu-[Hyp]-OH; N-terminus and C-terminus assumed),Viability (%),[1]; 0.1 μM,52.9%
same,Viability (%),[1]; 1 μM,54.8%
same,Viability (%),[1]; 10 μM,86.8%
same,Viability (%),[1]; 100 μM,81.2%
same,Viability (%),[1]; 1000 μM,86.7%
NCC(=O)N1CCC[C@H]1C(=O)N1C[C@H](O)C[C@H]1C(=O)O [GPO] (H-Gly-Pro-[Hyp]-OH),Viability (%),[3]; 0.1 μM added days 1 and 4,56.3%
same,Viability (%),[3]; 1 μM added days 1 and 4,58.4%
same,Viability (%),[3]; 10 μM added days 1 and 4,59.0%
same,Viability (%),[3]; 100 μM added days 1 and 4,55.8%
same,Viability (%),[3]; 1000 μM added days 1 and 4,61.5%
NCC(=O)N1CCC[C@H]1C(=O)O [GP] (H-Gly-Pro-OH; N-terminus and C-terminus assumed),Viability (%),[3]; 0.1 μM added days 1 and 4,48.4%
same,Viability (%),[3]; 1 μM added days 1 and 4,61.2%
same,Viability (%),[3]; 10 μM added days 1 and 4,65.7%
same,Viability (%),[3]; 100 μM added days 1 and 4,63.4%
same,Viability (%),[3]; 1000 μM added days 1 and 4,72.2%
"N[C@@H](CCC(=O)O)C(=O)O [Glutamic acid, glutamic acid]",viability at 10 µM,"[3]; Rattus norvegicus, 168 h",58.1%
same,viability at 100 µM,"[3]; Rattus norvegicus, 168 h",52.4%
same,viability at 1000 µM,"[3]; Rattus norvegicus, 168 h",42.4%
"N[C@@H](CCC(=O)N[C@@H](CS)C(=O)NCC(=O)O)C(=O)O [Glutathione, glutathione]",Viability (%),[3]; 0.01 μM added days 1 and 4,73.9%
same,Viability (%),[3]; 0.1 μM added days 1 and 4,63.5%
same,Viability (%),[3]; 1 μM added days 1 and 4,63.5%
same,Viability (%),[3]; 10 μM added days 1 and 4,63.6%
same,Viability (%),[3]; 100 μM added days 1 and 4,60.0%
same,Viability (%),[3]; 1000 μM added days 1 and 4,67.1%
"CN[C@H](CC(=O)O)C(=O)O [NMDA, N-methyl-D-aspartic acid]",viability at 100 µM,"[3]; Rattus norvegicus, 168 h",93.4%
O=C(O)CNC(=O)[C@@H]1C[C@@H](O)CN1 [OG] (H-[Hyp]-Gly-OH),Viability (%),[3]; 0.1 μM added days 1 and 4,54.5%
same,Viability (%),[3]; 1 μM added days 1 and 4,61.8%
same,Viability (%),[3]; 10 μM added days 1 and 4,77.6%
same,Viability (%),[3]; 100 μM added days 1 and 4,72.8%
same,Viability (%),[3]; 1000 μM added days 1 and 4,71.1%
"O=C(O)[C@@H]1C[C@@H](O)CN1C(=O)[C@@H]1CCCN1 [PO, Pro-Hyp] (H-Pro-[Hyp]-OH; N-terminus and C-terminus assumed)",Viability (%),[1]; 0.1 μM,52.6%
same,Viability (%),[1]; 1 μM,51.8%
same,Viability (%),[1]; 10 μM,76.3%
same,Viability (%),[1]; 100 μM,72.9%
same,Viability (%),[1]; 1000 μM,74.0%
same,antidepressant effect,rats,exhibited an antidepressant effect
"BDNF: brain-derived neurotrophic factor, Reference Example",Viability (%),[3]; 100 ng/mL added days 1 and 4,76.6%
Gly-Pro-Ala,neurogenesis promoting action,[4],has a neurogenesis promoting action
"IGF-1: listed in Table 5 only, not explained in the text",Viability (%),[3]; 100 ng/mL added days 1 and 4,67.1%
